Entries after “also recorded” stand apart in the source; their conditions may differ. Like-named read-outs stand apart in the source and are kept apart here.
Tests used:
WT TIGR4 S. pneumoniae [1] = assay: Growth curves in ThyB with copper sulfate and compound; details: for copper-dependent toxicity (CDT) / growth defect in growth curve: compound plus copper sulfate
Schistosoma mansoni = details: newly transformed and lung stage schistosomula; cited from earlier work
M. tuberculosis = details: cited from earlier work
WT TIGR4 S. pneumoniae [2] = assay: Killing curves in THYB
ΔcopA mutant strain = assay: Growth curves in ThyB with copper sulfate and compound, copper exporter deficient mutant; format: cell-based, Streptococcus pneumoniae; details: compound plus copper
Text: Final solution was set to pH 6.6.

[3] = test system: WT TIGR4 bacteria co-cultured with activated J774A.1 macrophages; assay: Macrophage killing assay, TIGR4 co-cultured with J774A.1 macrophages; format: cell-based, murine; details: macrophages with 100 μM inhibitor; bacteria treated with 250 μM Cu2+ + 16 μM DMDC
S. aureus = details: cited from earlier work
[4] = cited from earlier work
WT TIGR4 S. pneumoniae [5] = details: M17
Streptococcus pyogenes = details: inhaler with 25 mg DMDC twice a day for two weeks
TIGR4 S. pneumoniae [6] = details: ICP-OES
[7] = test system: Methicillin-resistant Staphylococcus aureus (MRSA); details: topical cream containing 50 mg DMDC twice daily
Coccidioides posadasii = details: inhaler with 50 mg DMDC twice a day for a week
WT TIGR4 S. pneumoniae [8] = details: RPMI
TIGR4 S. pneumoniae [9] = details: GFAAS
Streptococcus pneumoniae = details: 150 mg DMDC orally once a day for a week

CCN(CC)C(=S)S [DETDC, N,N-diethyldithiocarbamate]
CDT at much higher / high concentrations (WT TIGR4 S. pneumoniae [1]; with copper): no effect

Cc1ncc(CSSCc2cnc(C)c(O)c2CO)c(CO)c1O.Cl [pyrithoxin dihydrochloride]
copper-dependent toxicity (CDT) / growth defect in growth curve (WT TIGR4 S. pneumoniae [1]; WT TIGR4): no effect

O=C(C1CCCCC1)N1CC(=O)N2CCc3ccccc3C2C1 (stereo not drawn) [praziquantel]
efficacy of praziquantel in these developmental stages (Schistosoma mansoni): not effective

CCN(CC)C(=S)SSC(=S)N(CC)CC [TETD, tetraethylthiuram disulfide]
growth with compound alone (WT TIGR4 S. pneumoniae [1]; TETD alone, no copper): prevented growth
copper-dependent toxicity (CDT) / growth defect in growth curve (WT TIGR4 S. pneumoniae [1]; WT TIGR4): returned growth to wild type levels
copper-dependent toxicity (CDT) / growth defect in growth curve (WT TIGR4 S. pneumoniae [1]; WT TIGR4, listed as disulfiram): not observed
copper dependent toxicity against M. tuberculosis (M. tuberculosis): copper dependent toxicity
bactericidal activity in killing curve (WT TIGR4 S. pneumoniae [2]; compound alone or with copper sulfate): did not show bactericidal activity

CC1(C)C2CC3OB(c4cccc5cccnc45)OC3(C)C1C2 (stereo not drawn) [QBP, quinoline boronic acid pinanediol ester]
copper-dependent toxicity (CDT) / growth defect in growth curve (WT TIGR4 S. pneumoniae [1]; WT TIGR4): no CDT; also recorded: do not cause a significant growth defect
CDT / growth defect in growth curve, ΔcopA (ΔcopA mutant strain): susceptible; also recorded: does cause a growth defect
CDT on the ΔcopA mutant as compared to 8HQ (ΔcopA mutant strain): did not exhibit as much CDT

O.c1cnc2c(c1)ccc1cccnc12 [1,10-phenalthroline monohydrate]
copper-dependent toxicity (CDT) / growth defect in growth curve (WT TIGR4 S. pneumoniae [1]; WT TIGR4): no effect on wild type
CDT / growth defect in growth curve, ΔcopA (ΔcopA mutant strain): an effect

COc1cc(C(C)=O)ccc1O [apocynin]
recovered bacteria with macrophage inhibitor treatment [3]: no statistically significant improvement

Oc1cccc2cccnc12 [8HQ, 8-hydroxyquinoline]
CDT against S. aureus (S. aureus): have CDT
copper-dependent toxicity (CDT) / growth defect in growth curve (WT TIGR4 S. pneumoniae [1]; WT TIGR4): no 8HQ mediated CDT; also recorded: do not cause a significant growth defect
CDT / growth defect in growth curve, ΔcopA (ΔcopA mutant strain): susceptible; also recorded: does cause a growth defect
toxicity in mammals ([4]; mammals): inherent toxicity

CN(C)C(=S)[S][Na] [DMDC]
time required for killing (WT TIGR4 S. pneumoniae [5]): 1 to 2 h
side effects (Streptococcus pyogenes): No side effects
increase of intracellular copper compared to the untreated control (TIGR4 S. pneumoniae [6]; 250 μM Cu2+ + 16 μM DMDC): 65 fold
increase of intracellular copper compared to the untreated control (TIGR4 S. pneumoniae [6]; 250 μM Cu2+ + 32 μM DMDC): 67 fold
side effects [7]: No side effects
side effects (Coccidioides posadasii): No side effects
time required for killing (WT TIGR4 S. pneumoniae [8]): 3 to 4 h
toxicity of chronic use ([4]; chronic use): harm the liver and lead to higher rates of some carcinomas
toxicity of high doses ([4]; high doses): neurological problems
increase of intracellular copper compared to the copper treated samples (TIGR4 S. pneumoniae [9]; 250 μM Cu2+ + 16 μM DMDC): 7 fold
increase of intracellular copper compared to the copper treated samples (TIGR4 S. pneumoniae [9]; 250 μM Cu2+ + 32 μM DMDC): 10 fold
kill of wild-type Streptococcus pneumoniae (WT TIGR4 S. pneumoniae [2]; low micromolar DMDC complexed with copper, in 2 hours): up to 99.9%
side effects (Streptococcus pneumoniae): No side effects

N=C(N)NOCC[C@H](N)C(=O)O [L-canavanine]
recovered bacteria with macrophage inhibitor treatment [3]: no statistically significant improvement

S=C(S)N1CCN(C(=S)S)CC1 [TLA2, Piperizine bis-dithiocarbamate]
concentration showing protective effect vs copper (WT TIGR4 S. pneumoniae [1]; 250 uM or 500 uM copper sulfate): > 32 µM

Reference: patent US20240173292A1, “COMPOUNDS THAT SYNERGIZE WITH COPPER TO KILL STREPTOCOCCUS PNEUMONIAE” (priority 2021, published 2024)
